# Legend:
# pork = assay: Follow-up studies of pork drip loss (Example 3, FIGS. 1 and 2); type: in vivo, pigs
# Experimental: Drip loss is a measurement of the ability of the sample to retain water. In this procedure, a standardized amount of lean pork muscle, i.e., a cubic centimeter, is weighed, then suspended in an airtight container from a hook for 24 hours. The difference in weight from beginning to end of the 24 hour period represents the amount of water loss or purge. […] Changes in the pH of pork associated with postmortem metabolism affect the isoelectric point of the various amino acids in protein, and thus can affect the protein's ability to bind water.
# finishing pigs = assay: Carcass characteristics of finishing pigs fed Carnitine and Paylean (Example 2); type: in vivo; settings: for Drip loss / Hue angle / L* / Saturation index / Temperature 5 min / Temperature 15 min / Temperature 45 min / Temperature 1.5 h / Temperature 3 h / Temperature 6 h / a* / a*/b* / b* / pH 0 min / pH 5 min / pH 15 min / pH 45 min / pH 1.5 h / pH 3 h / pH 6 h / pH 24 h / Firmness / Marbling / Visual cobra: Paylean 0 g/ton; for Firmness / Marbling / Visual cobra: score 1 to 5
# Experimental: Because of the dramatic and potentially economically important changes in pork quality observed in the data of Example 1, a second trial was conducted to confirm these observations. This experiment was conducted in the same facility as Example 1 and used the same diet in Table 1. The primary difference was that the 4.5 g/ton ractopamine level was not included; i.e., only 0 or 9 grams/ton ractopamine was combined with either 0, 25, or 50 ppm of added L-camitine.
smiles,measurement,setting,value
"C[N+](C)(C)C[C@H](O)CC(=O)[O-] [Carnitine, L-carnitine]",effect on drip loss,"pork; 50 ppm, without ractopamine, two of the three studies, FIG. 1",small positive effect
same,effect on reducing (improving) pork drip loss,"pork; added to diet containing ractopamine, FIG. 2",greater net positive effect
same,Drip loss,finishing pigs; Carnitine 25 ppm,3.07%
same,Hue angle,finishing pigs; Carnitine 25 ppm,64.61
same,L*,finishing pigs; Carnitine 25 ppm,57.23
same,Saturation index,finishing pigs; Carnitine 25 ppm,17.59
same,Temperature 5 min,finishing pigs; Carnitine 25 ppm,39.79 °C
same,Temperature 15 min,finishing pigs; Carnitine 25 ppm,39.92 °C
same,Temperature 45 min,finishing pigs; Carnitine 25 ppm,39.03 °C
same,Temperature 1.5 h,finishing pigs; Carnitine 25 ppm,32.87 °C
same,Temperature 3 h,finishing pigs; Carnitine 25 ppm,22.12 °C
same,Temperature 6 h,finishing pigs; Carnitine 25 ppm,11.28 °C
same,a*,finishing pigs; Carnitine 25 ppm,7.58
same,a*/b*,finishing pigs; Carnitine 25 ppm,0.48
same,b*,finishing pigs; Carnitine 25 ppm,15.86
same,pH 0 min,finishing pigs; Carnitine 25 ppm,7.13
same,pH 5 min,finishing pigs; Carnitine 25 ppm,6.84
same,pH 15 min,finishing pigs; Carnitine 25 ppm,6.60
same,pH 45 min,finishing pigs; Carnitine 25 ppm,6.16
same,pH 1.5 h,finishing pigs; Carnitine 25 ppm,5.91
same,pH 3 h,finishing pigs; Carnitine 25 ppm,5.76
same,pH 6 h,finishing pigs; Carnitine 25 ppm,5.70
same,pH 24 h,finishing pigs; Carnitine 25 ppm,5.61
same,Firmness,finishing pigs; Carnitine 25 ppm,2.44
same,Marbling,finishing pigs; Carnitine 25 ppm,1.75
same,Visual cobra,finishing pigs; Carnitine 25 ppm,3.10
same,Drip loss,finishing pigs; Carnitine 50 ppm,2.73%
same,Hue angle,finishing pigs; Carnitine 50 ppm,64.07
same,L*,finishing pigs; Carnitine 50 ppm,58.00
same,Saturation index,finishing pigs; Carnitine 50 ppm,18.11
same,Temperature 5 min,finishing pigs; Carnitine 50 ppm,39.17 °C
same,Temperature 15 min,finishing pigs; Carnitine 50 ppm,39.56 °C
same,Temperature 45 min,finishing pigs; Carnitine 50 ppm,38.73 °C
same,Temperature 1.5 h,finishing pigs; Carnitine 50 ppm,33.17 °C
same,Temperature 3 h,finishing pigs; Carnitine 50 ppm,20.89 °C
same,Temperature 6 h,finishing pigs; Carnitine 50 ppm,11.22 °C
same,a*,finishing pigs; Carnitine 50 ppm,7.93
same,a*/b*,finishing pigs; Carnitine 50 ppm,0.49
same,b*,finishing pigs; Carnitine 50 ppm,16.27
same,pH 0 min,finishing pigs; Carnitine 50 ppm,7.21
same,pH 5 min,finishing pigs; Carnitine 50 ppm,6.82
same,pH 15 min,finishing pigs; Carnitine 50 ppm,6.58
same,pH 45 min,finishing pigs; Carnitine 50 ppm,6.02
same,pH 1.5 h,finishing pigs; Carnitine 50 ppm,5.97
same,pH 3 h,finishing pigs; Carnitine 50 ppm,5.88
same,pH 6 h,finishing pigs; Carnitine 50 ppm,5.70
same,pH 24 h,finishing pigs; Carnitine 50 ppm,5.60
same,Firmness,finishing pigs; Carnitine 50 ppm,2.34
same,Marbling,finishing pigs; Carnitine 50 ppm,1.55
same,Visual cobra,finishing pigs; Carnitine 50 ppm,2.90
same,meat quality,finishing pigs; in pigs fed Paylean,improves meat quality

# Source: patent US20030235646A1, “Method for improving quality of meat by supplementing pig diets and concentrates used therefor” (Lonza Inc., priority 2002, published 2003)
